The test system of one data set is Tetranychus urticae. Description: Tetranychus urticae spray test, OP-resistant (bean leaf discs). Conditions: foliar, 144 h, read-out: Wirkung. Format: in vivo. An excerpt:
(§1) Zur Herstellung einer zweckmäßigen Wirkstoffzubereitung löst man 1 Gewichtsteil Wirkstoff mit den angegebenen Gewichtsteilen Lösungsmittel und füllt mit Wasser, welches eine Emulgatorkonzentration von 1000 ppm enthält, bis zum Erreichen der gewünschten Konzentration auf. Zur Herstellung weiterer Testkonzentrationen wird mit emulgatorhaltigem Wasser verdünnt.
Bohnenblattscheiben (Phaseolus vulgaris), die von allen Stadien der Gemeinen Spinnmilbe (Tetranychus urticae) befallen sind, werden mit einer Wirkstoffzubereitung der gewünschten Konzentration gespritzt.
Nach 6 Tagen wird die Wirkung in % bestimmt. Dabei bedeutet 100 %, dass alle Spinnmilben abgetötet wurden; 0 % bedeutet, dass keine Spinnmilben abgetötet wurden.

A short description of data set [1]: logP by reversed-phase HPLC (LC-MS), neutral range. It counts as physicochemical. As to conditions: c18 hplc, ammonium bicarbonate/acetonitrile; pH 7.8, 0,001 molar aqueous Ammoniumhydrogencarbonat / Acetonitril, C 18, 55°C. Here is the method: (§2) Die Messung der logP Werte erfolgt gemäß EEC Directive 79/831 Annex V.A8 durch HPLC (High Performance Liquid Chromatography) an einer Phasenumkehrsäule (C 18). Temperatur: 55°C. Die Bestimmung mit der LC-MS im sauren Bereich erfolgt bei pH 2,7 mit 0,1 % wässriger Ameisensäure und Acetonitril (enthält 0,1% Ameisensäure) als Eluenten; linearer Gradient von 10% Acetonitril bis 95% Acetonitril. In der Tabelle logP (HCOOH) genannt.
Die Bestimmung mit der LC-MS im neutralen Bereich erfolgt bei pH 7.8 mit 0,001 molarer wässriger Ammoniumhydrogencarbonat-Lösung und Acetonitril als Eluenten; linearer Gradient von 10 % Acetonitril bis 95 % Acetonitril. In der Tabelle logP (neutral) genannt.
(§3) Die Eichung erfolgt mit unverzweigten Alkan-2-onen (mit 3 bis 16 Kohlenstoffatomen), deren logP-Werte bekannt sind (Bestimmung der logP-Werte anhand der Retentionszeiten durch lineare Interpolation zwischen zwei aufeinander folgenden Alkanonen).

The subject of another data set is Spodoptera frugiperda. Description: Spodoptera frugiperda spray test (maize leaf discs, caterpillars). Format: in vivo. As to conditions: foliar, 168 h, Aufwandmenge 500g/ha, after 7 days, read-out: Wirkung.
Text: as §1
Maisblattscheiben (Zea mays) werden mit einer Wirkstoffzubereitung der gewünschten Konzentration gespritzt und nach dem Abtrocknen mit Raupen des Heerwurms (Spodoptera frugiperda) besetzt.
Nach 7 Tagen wird die Wirkung in % bestimmt. Dabei bedeutet 100 %, dass alle Raupen abgetötet wurden; 0 % bedeutet, dass keine Raupe abgetötet wurde.

In another data set the test system is Phaedon cochleariae. Put plainly: Phaedon cochleariae spray test (Chinese cabbage leaf discs, larvae). Format: in vivo. Conditions: foliar, 168 h, read-out: Wirkung.
Text: as §1
Chinakohlblattscheiben (Brassica pekinensis) werden mit einer Wirkstoffzubereitung der gewünschten Konzentration gespritzt und nach dem Abtrocknen mit Larven des Meerrettichblattkäfers (Phaedon cochleariae) besetzt.
Nach 7 Tagen wird die Wirkung in % bestimmt. Dabei bedeutet 100 %, dass alle Käferlarven abgetötet wurden; 0 % bedeutet, dass keine Käferlarven abgetötet wurden.

The test system of the next data set is Ctenocephalides felis. Put plainly: Ctenocephalides felis oral test (feeding on treated citrated cattle blood). Conditions: 48 h, Aufwandmenge 100ppm, after 2 days, read-out: Wirkung (Abtötung). It counts as in vivo. Here is the method: Zwecks Herstellung einer zweckmäßigen Wirkstoffzubereitung vermischt man 10 mg Wirkstoff mit 0,5 ml Dimethylsulfoxid. Durch Verdünnen mit citriertem Rinderblut erhält man die gewünschte Konzentration.
Ca. 20 nüchterne adulte Katzenflöhe (Ctenocephalides felis) werden in eine Kammer eingesetzt, die oben und unten mit Gaze verschlossen ist. Auf die Kammer wird ein Metallzylinder gestellt, dessen Unterseite mit Parafilm verschlossen ist. Der Zylinder enthält die Blut-Wirkstoffzubereitung, die von den Flöhen durch die Parafilmmembran aufgenommen werden kann.
Nach 2 Tagen wird die Abtötung in % bestimmt. Dabei bedeutet 100 %, dass alle Flöhe abgetötet wurden; 0 % bedeutet, dass keiner der Flöhe abgetötet wurde.

For a further data set, the system named is Lucilia cuprina. Description: Lucilia cuprina test (L1 larvae on treated minced horse meat). Conditions: 48 h, Aufwandmenge 100ppm, after 2 days, read-out: Wirkung (Abtötung). It counts as in vivo. The method, then: (§4) Zur Herstellung einer zweckmäßigen Wirkstoffzubereitung vermischt man 10 mg Wirkstoff mit 0,5 ml Dimethylsulfoxid und verdünnt das Konzentrat mit Wasser auf die gewünschte Konzentration.
Ca. 20 L1-Larven der Australischen Schafgoldfliege (Lucilia cuprina) werden in ein Testgefäß überführt, welches gehacktes Pferdefleisch und die Wirkstoffzubereitung der gewünschten Konzentration enthält.
Nach 2 Tagen wird die Abtötung in % bestimmt. Dabei bedeutet 100 %, dass alle Larven abgetötet wurden; 0 % bedeutet, dass keine Larven abgetötet wurden.

Another data set concerns Musca domestica. Description: Musca domestica test (adult flies, treated sugar sponge). Format: in vivo. Conditions: 48 h, read-out: Wirkung (Abtötung). The method, then:
as §4
Gefäße, die einen Schwamm enthalten, der mit Zuckerlösung und der Wirkstoffzubereitung der gewünschten Konzentration behandelt wurde, werden mit 10 adulten Stubenfliegen (Musca domestica) besetzt.
Nach 2 Tagen wird die Abtötung in % bestimmt. Dabei bedeutet 100 %, dass alle Fliegen abgetötet wurden; 0 % bedeutet, dass keine der Fliegen abgetötet wurde.

Data set [2] can be described thus: logP by reversed-phase HPLC (LC-MS), acidic range. Format: physicochemical. As to conditions: c18 hplc, formic acid/acetonitrile; pH 2,7, 0,1 % aqueous Ameisensäure / Acetonitril, C 18, 55°C; read-out: logP (HCOOH). Here is the method: as §2, §3

Like-named read-outs stand apart in the source and are kept apart here.

With `CC1=CC1C(=O)Nc1cc(-c2ccc(OC(F)(F)F)cc2)cc(NC(=O)C2CC2)n1` (centres unmarked) [I-034], the mortality at 500 g/ha in the data set on Tetranychus urticae (Aufwandmenge 500g/ha, after 6 days, OP-resistent) amounted to 90%.

Consider `Nc1cc(Br)cc(NC(=O)C2CC2)n1` [N-(6-Amino-4-brompyridin-2-yl)cyclopropancarboxamid], for which the chromatographic logP in data set [1] is 1.61.

In data set [1], `CC1(C)OB(c2cc(NC(=O)C3CC3)nc(NC(=O)C3CC3)c2)OC1(C)C` [N,N'-[4-(4,4,5,5-Tetramethyl-1,3,2-dioxaborolan-2-yl)pyridin-2,6-diyl]dicyclopropancarboxamid] had a chromatographic logP of 0.89.

`Nc1cc(N)cc(-c2ccc(C(F)(F)C(F)(F)F)c(F)c2)c1` [3'-Fluor-4'-(pentafluorethyl)biphenyl-3,5-diamin] returned a chromatographic logP in data set [1] of 2.83.

Take `FC(F)(F)Oc1ccc(-c2cc(NC(=S)C3CC3)nc(NC(=S)C3CC3)c2)cc1` [I-032, N,N'-{4-[4-(Trifluormethoxy)phenyl]pyridin-2,6-diyl}dicyclopropancarbothioamid]: the chromatographic logP in data set [1] stood at 4.98. For the same molecule, the mortality at 500 g/ha with Spodoptera frugiperda was 100%.

Regarding `O=C(Nc1cc(-c2ccc(OC(F)(F)F)cc2)cc(NC(=S)C2CC2)n1)C1CC1` [I-033, N-{6-[(Cyclopropylcarbonothioyl)amino]-4-[4-(trifluormethoxy)phenyl]pyridin-2-yl}cyclopropancarboxamid], the chromatographic logP in data set [1] amounted to 4.44. Moreover, the mortality at 500 g/ha in the data set on Spodoptera frugiperda is 100%.

For the molecule `Nc1cc(-c2ccc(OC(F)(F)F)cc2)cc(NC(=O)C2CC2)n1` [N-{6-Amino-4-[4-(trifluormethoxy)phenyl]pyridin-2-yl}cyclopropancarboxamid], the chromatographic logP in data set [1] turned out to be 2.79.

In turn, `Nc1cc(Br)c(Cl)c(N)n1` [4-Brom-3-chlorpyridin-2,6-diamin] yielded a chromatographic logP in data set [1] of 1.46.

`O=C(Nc1cc(-c2ccc(C(F)(F)C(F)(F)F)c(F)c2)cc(NC(=O)C2CC2)n1)C1CC1` [I-035, N,N'-{4-[3-Fluor-4-(pentafluorethyl)phenyl]pyridin-2,6-diyl}dicyclopropancarboxamid]: the chromatographic logP in data set [1] was determined as 4.06. The mortality at 500 g/ha in the data set on Spodoptera frugiperda and with Phaedon cochleariae was 100% each time.

`CC(C)(F)C(=O)Nc1cc(-c2ccc(OC(F)(F)F)cc2)cc(NC(=O)C2CC2)n1` [I-015]: the mortality at 100 µg/mL in the data set with Ctenocephalides felis was found to be 100%. In addition, the mortality at 500 g/ha in the data set with Tetranychus urticae came out at 90%; in the data set with Spodoptera frugiperda it was 100%; in the data set with Phaedon cochleariae it was 100%.

`O=C(Nc1cc(-c2ccc(OC(F)(F)F)cc2)cc(NC(=O)C2(F)CC2)n1)C1CC1` [I-012, N-{6-[(Cyclopropylcarbonyl)amino]-4-[4-(trifluormethoxy)phenyl]pyridin-2-yl}-1-fluorcyclopropancarboxamid]: in the data set on Ctenocephalides felis, the mortality at 100 µg/mL stood at 95%. Moreover, in data set [1], the chromatographic logP was 3.88. Moreover, the mortality at 500 g/ha with Spodoptera frugiperda and in the data set on Phaedon cochleariae was 100% throughout.

`O=C(Nc1cc(-c2ccc(OC(F)(F)F)cc2)cc(NC(=O)C2(C3CC3)CC2)n1)C1CC1` [I-014]: the results for the mortality at 100 µg/mL in the data set with Ctenocephalides felis, in the data set on Lucilia cuprina and with Musca domestica were 100%, 100% and 80%, respectively. The mortality at 500 g/ha in the data set on Spodoptera frugiperda and in the data set on Phaedon cochleariae was 100% in each case.

Take `O=C(Nc1cc(-c2ccc(OC(F)(F)F)cc2)cc(NC(=O)C2(C(F)(F)F)CC2)n1)C1CC1` [I-006]: the mortality at 100 µg/mL in the data set on Ctenocephalides felis stood at 100%; in the data set on Musca domestica, 90%. Moreover, the mortality at 500 g/ha with Spodoptera frugiperda turned out to be 100%; in the data set on Phaedon cochleariae, 83%.

In data set [1], `O=C(Nc1cc(Br)cc(NC(=O)C2CC2)n1)C1CC1` [N,N'-(4-Brompyridin-2,6-diyl)dicyclopropancarboxamid] registered a chromatographic logP of 2.35.

Take `O=C(Nc1cc(-c2ccc(C(F)(F)C(F)(F)F)cc2)cc(NC(=O)C2CC2)n1)C1CC1` [I-036]: the mortality at 100 µg/mL stood at 100% with Ctenocephalides felis and 95% in the data set on Lucilia cuprina. Also, the mortality at 500 g/ha was found to be 90% with Tetranychus urticae, 100% in the data set with Spodoptera frugiperda and 83% with Phaedon cochleariae.

For the molecule `CC(C)C(=O)Nc1cc(N)cc(-c2ccc(C(F)(F)C(F)(F)F)c(F)c2)c1` [N-[5-Amino-3'-fluor-4'-(pentafluorethyl)biphenyl-3-yl]-2-methylpropanamid], the chromatographic logP in data set [1] came to 3.32.

As for `COC(=O)N(C(=O)C1CC1)c1cc(-c2ccc(OC(F)(F)F)cc2)cc(N(C(=O)OC)C(=O)C2CC2)n1` [I-037, Dimethyl-{4-[4-(trifluormethoxy)phenyl]pyridin-2,6-diyl}bis[(cyclopropylcarbonyl)carbamat]], the chromatographic logP in data set [1] was 3.73. For the same molecule, in the data set on Phaedon cochleariae (Aufwandmenge 500g/ha, after 7 days), the mortality at 500 g/ha was 100%.

As to `CC(=O)Nc1cc(-c2ccc(OC(F)(F)F)cc2)cc(NC(=O)C2CC2)n1` [I-022], the mortality at 100 µg/mL with Ctenocephalides felis was found to be 100%. In addition, the mortality at 500 g/ha in the data set on Spodoptera frugiperda and in the data set with Phaedon cochleariae was 100% in each case.

Regarding `O=C(Nc1cc(-c2ccc(OC(F)(F)F)cc2)cc(NC(=O)C2CC2)n1)c1ccccc1` [I-026], the mortality at 100 µg/mL in the data set with Ctenocephalides felis was found to be 100%. For the same molecule, the mortality at 500 g/ha with Spodoptera frugiperda amounted to 100%; in the data set with Phaedon cochleariae, 83%.

Turning to `O=C(Nc1cc(NC(=O)C2CC2)cc(-c2ccc(C(F)(F)C(F)(F)F)c(F)c2)c1)C1CC1` [I-050], the mortality at 100 µg/mL in the data set with Ctenocephalides felis worked out at 100%. The mortality at 500 g/ha with Spodoptera frugiperda and in the data set with Phaedon cochleariae was 100% throughout.

Molecule `CN(C(=O)C1CC1)c1cc(-c2ccc(OC(F)(F)F)cc2)cc(NC(=O)C2CC2)n1` [I-31, N-{6-[(Cyclopropylcarbonyl)amino]-4-[4-(trifluormethoxy)phenyl]pyridin-2-yl}-N-methylcyclopropancarboxamid] showed a chromatographic logP in data set [1] of 3.66.

In the case of `CCN(C(=O)C1CC1)c1cc(-c2ccc(OC(F)(F)F)cc2)cc(N(CC)C(=O)C2CC2)n1` [I-29, N,N'-{4-[4-(Trifluormethoxy)phenyl]pyridin-2,6-diyl}bis(N-ethylcyclopropancarboxamid)], the chromatographic logP in data set [1] came to 4.05.

Regarding `CC(C)C(=O)Nc1cc(NC(=O)C2CC2)cc(-c2ccc(C(F)(F)C(F)(F)F)c(F)c2)c1` [I-060, N-[3'-Fluor-5-(isobutyrylamino)-4'-(pentafluorethyl)biphenyl-3-yl]cyclopropancarboxamid], the mortality at 500 g/ha in the data set with Spodoptera frugiperda and in the data set on Phaedon cochleariae was 100% in each case. Moreover, the chromatographic logP in data set [2] was found to be 3.7.

As for `N#Cc1ccc(C(=O)Nc2cc(-c3ccc(OC(F)(F)F)cc3)cc(NC(=O)C3CC3)n2)cc1` [I-027], the mortality at 100 µg/mL in the data set with Ctenocephalides felis is 100%. Moreover, the mortality at 500 g/ha in the data set on Spodoptera frugiperda and with Phaedon cochleariae was 100% throughout.

For the origin of these results see patent EP3284739A1, “SUBSTITUTED (HET) ARYL COMPOUNDS AS PESTICIDES” (Bayer CropScience Aktiengesellschaft, priority 2017, dated 2018).
